Like-named read-outs stand apart in the source and are kept apart here.

In data set [1] the test system is adult patients undergoing elective cardiac surgery requiring CPB. The data set is described as follows: Hemodynamic response (MAP, heart rate) to protamine infusion, double-blind randomized study. It counts as in vivo, human. As for the experimental part: The present inventors conducted a double-blind randomized study in sixteen adult male patients undergoing elective cardiac surgery requiring CPB and taking an angiotensin-converting enzyme inhibitor preoperatively. […] Mean arterial pressure (MAP) and tissue-type plasminogen activator (t-PA) activity were measured intraoperatively and before and after protamine.
Sixteen adult patients undergoing elective cardiac surgery requiring CPB and taking an ACE inhibitor preoperatively were studied. Patients were excluded if they had evidence of coagulopathy (INR greater than 1.7), underwent emergency surgery, underwent redo-CABG, had taken a glycoprotein IIb/IIIa antagonist within 2 days of surgery or had renal insufficiency (baseline creatinine>1.5 mg/dl). All patients provided written informed consent.

Data set [2] shares this test system. The data set is described as follows: Safety: intra- and postoperative patient characteristics. The settings on record: HOE 140 group N=8. In kind it is in vivo, human. As for the experimental part: Patients were transfused according to the following guidelines: packed red blood cells (PRBC) were transfused for a hematocrit less than 20% during CPB and for a hematocrit less than 25% after CPB, CPB time >120 min, or evidence of end-organ dysfunction. Platelets were transfused in 5-U sets for ongoing microvascular bleeding despite a normalized ACT. Fresh frozen plasma (FFP) was given for continued bleeding only after platelets were given. Transfusion requirements were recorded from the beginning of surgery until hospital discharge.

Data set [3] deals with tissue factor and plasminogen activator inhibitor-1. The settings on record: cited from earlier work.
The subject of data set [4] is pancreatitis-induced hypotension. To be noted: dog, in vivo; cited from earlier work.
In data set [5] the test system is rats. The settings on record: after i.v. bradykinin, endogenously-released kinins, induction of acute pancreatitis; cited from earlier work.
The test system of data set [6] is bradykinin-induced hypotension. The settings on record: correlated with antagonism of bradykinin-induced hypotension; cited from earlier work.
Data set [7] has as its system hypotensive transgenic mice that harbor the B2 receptor. The settings on record: mouse, in vivo; cited from earlier work.
Data set [8] relates to vasodilation in response to exogenous bradykinin. To be noted: HOE 140 100 μg/kg; cited from earlier work.
Data set [9] concerns t-PA antigen. In words: t-PA antigen in arterial blood, 2-site ELISA.
Data set [10] concerns plasminogen activator inhibitor -1 (PAI-1) antigen. The data set is described as follows: PAI-1 antigen in arterial blood, 2-site ELISA. To be noted: HOE 140 group N=8. (In an ELISA, binding on a coated surface is turned into a signal by an enzyme label.)
In data set [11] the test system is tissue-type plasminogen activator (t-PA) activity. In words: t-PA activity in arterial blood, chromogenic substrate kit.
The target of data set [12] is T1, carboxypeptidase N (kininase I) (Homo sapiens, UniProt P15169).
T1 sequence (P15169 21-458): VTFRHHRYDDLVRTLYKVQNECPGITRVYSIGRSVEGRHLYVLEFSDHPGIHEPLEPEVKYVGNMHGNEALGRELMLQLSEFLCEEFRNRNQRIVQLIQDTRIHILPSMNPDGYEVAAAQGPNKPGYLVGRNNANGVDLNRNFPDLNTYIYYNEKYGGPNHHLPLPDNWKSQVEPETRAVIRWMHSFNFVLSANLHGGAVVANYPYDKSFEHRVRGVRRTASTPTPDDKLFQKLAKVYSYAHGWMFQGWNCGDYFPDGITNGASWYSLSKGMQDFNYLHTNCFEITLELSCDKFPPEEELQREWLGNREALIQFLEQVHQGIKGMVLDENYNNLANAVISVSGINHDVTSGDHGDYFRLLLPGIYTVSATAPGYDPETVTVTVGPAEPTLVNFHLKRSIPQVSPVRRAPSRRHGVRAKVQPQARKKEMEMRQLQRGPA
T1 sequence (P22792 22-545 partner): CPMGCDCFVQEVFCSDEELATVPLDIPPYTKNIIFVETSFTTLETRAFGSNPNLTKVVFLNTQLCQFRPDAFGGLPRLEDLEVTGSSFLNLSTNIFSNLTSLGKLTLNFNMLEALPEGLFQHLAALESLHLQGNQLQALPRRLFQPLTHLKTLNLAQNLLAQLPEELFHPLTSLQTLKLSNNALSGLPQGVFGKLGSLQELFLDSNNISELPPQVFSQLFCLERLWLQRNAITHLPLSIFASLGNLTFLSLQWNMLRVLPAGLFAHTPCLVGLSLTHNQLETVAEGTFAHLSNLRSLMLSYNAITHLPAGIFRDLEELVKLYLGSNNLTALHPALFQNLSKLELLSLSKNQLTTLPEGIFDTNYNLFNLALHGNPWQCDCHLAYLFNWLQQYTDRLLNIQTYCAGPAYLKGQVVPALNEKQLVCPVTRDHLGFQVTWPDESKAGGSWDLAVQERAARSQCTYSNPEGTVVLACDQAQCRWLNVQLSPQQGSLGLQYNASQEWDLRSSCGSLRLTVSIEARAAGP
The settings on record: cited from earlier work.

Data set [13] addresses angiotensin-converting enzyme (ACE) (Homo sapiens, UniProt P12821). The settings on record: cited from earlier work.
In data set [14] the target is neutral endopeptidase 24.11 (Homo sapiens, UniProt P08473). The settings on record: cited from earlier work.
Chain of neutral endopeptidase 24.11 (P08473 whole entry, species assumed): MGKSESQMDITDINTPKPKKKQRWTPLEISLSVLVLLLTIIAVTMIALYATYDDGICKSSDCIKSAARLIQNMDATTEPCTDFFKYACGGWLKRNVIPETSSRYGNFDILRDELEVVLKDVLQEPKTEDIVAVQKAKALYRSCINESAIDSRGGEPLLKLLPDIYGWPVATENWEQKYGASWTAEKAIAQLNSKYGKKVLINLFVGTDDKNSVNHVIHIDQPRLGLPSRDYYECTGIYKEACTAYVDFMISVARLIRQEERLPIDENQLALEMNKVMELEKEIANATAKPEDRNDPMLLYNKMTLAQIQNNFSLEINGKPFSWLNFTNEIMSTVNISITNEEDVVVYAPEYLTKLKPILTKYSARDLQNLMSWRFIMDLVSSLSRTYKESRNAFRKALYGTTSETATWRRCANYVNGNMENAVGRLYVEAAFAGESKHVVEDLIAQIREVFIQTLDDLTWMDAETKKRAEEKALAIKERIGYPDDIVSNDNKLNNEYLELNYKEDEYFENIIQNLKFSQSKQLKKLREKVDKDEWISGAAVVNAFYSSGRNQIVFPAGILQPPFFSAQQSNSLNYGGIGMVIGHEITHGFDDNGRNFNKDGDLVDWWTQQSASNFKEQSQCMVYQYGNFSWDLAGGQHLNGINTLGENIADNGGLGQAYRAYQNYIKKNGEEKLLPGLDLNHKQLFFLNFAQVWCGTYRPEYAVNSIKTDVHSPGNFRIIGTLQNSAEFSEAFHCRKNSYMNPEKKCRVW
In data set [15] the target is aminopeptidase M (Homo sapiens, UniProt P15144). The settings on record: cited from earlier work.
Chain of aminopeptidase M (P15144 whole entry, species assumed): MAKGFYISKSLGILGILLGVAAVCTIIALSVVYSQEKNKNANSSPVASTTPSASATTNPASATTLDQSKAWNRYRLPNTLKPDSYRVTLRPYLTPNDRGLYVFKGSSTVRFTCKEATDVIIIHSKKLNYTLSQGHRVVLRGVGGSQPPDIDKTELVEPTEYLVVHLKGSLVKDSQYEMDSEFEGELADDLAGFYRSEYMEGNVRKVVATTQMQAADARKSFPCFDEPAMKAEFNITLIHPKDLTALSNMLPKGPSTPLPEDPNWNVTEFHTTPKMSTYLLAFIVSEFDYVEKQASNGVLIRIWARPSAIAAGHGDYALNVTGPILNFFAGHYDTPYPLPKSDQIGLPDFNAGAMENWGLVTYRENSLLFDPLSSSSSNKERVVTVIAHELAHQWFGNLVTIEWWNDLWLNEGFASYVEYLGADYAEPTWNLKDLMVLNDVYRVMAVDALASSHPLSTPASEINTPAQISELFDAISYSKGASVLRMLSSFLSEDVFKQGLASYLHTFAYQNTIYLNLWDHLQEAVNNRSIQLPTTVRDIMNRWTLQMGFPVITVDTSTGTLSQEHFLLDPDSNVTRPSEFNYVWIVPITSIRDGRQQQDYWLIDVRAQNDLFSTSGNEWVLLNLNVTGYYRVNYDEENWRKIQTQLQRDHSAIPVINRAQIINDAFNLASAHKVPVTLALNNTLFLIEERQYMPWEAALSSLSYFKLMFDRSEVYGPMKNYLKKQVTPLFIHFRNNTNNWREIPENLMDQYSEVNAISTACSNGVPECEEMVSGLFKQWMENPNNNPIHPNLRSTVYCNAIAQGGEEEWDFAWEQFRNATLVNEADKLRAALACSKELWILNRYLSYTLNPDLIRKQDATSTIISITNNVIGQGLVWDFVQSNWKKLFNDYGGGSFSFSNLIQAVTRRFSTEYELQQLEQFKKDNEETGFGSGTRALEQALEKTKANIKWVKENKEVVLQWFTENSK
For data set [16] the following is noted: cited from earlier work.
The subject of data set [17] is bradykinin. The data set is described as follows: Arterial bradykinin concentrations before and after protamine, enzyme immunoassay. The settings on record: all patients; for bradykinin concentration after protamine: P=0.006.
Setting [18] is: HOE 140 group N=8, mean±SD, in beats/min (unit assumed).
[19] abbreviates: protamine 250 mg over 8 min after CPB.

Chain of angiotensin-converting enzyme (ACE) (P12821 30-1306, species assumed): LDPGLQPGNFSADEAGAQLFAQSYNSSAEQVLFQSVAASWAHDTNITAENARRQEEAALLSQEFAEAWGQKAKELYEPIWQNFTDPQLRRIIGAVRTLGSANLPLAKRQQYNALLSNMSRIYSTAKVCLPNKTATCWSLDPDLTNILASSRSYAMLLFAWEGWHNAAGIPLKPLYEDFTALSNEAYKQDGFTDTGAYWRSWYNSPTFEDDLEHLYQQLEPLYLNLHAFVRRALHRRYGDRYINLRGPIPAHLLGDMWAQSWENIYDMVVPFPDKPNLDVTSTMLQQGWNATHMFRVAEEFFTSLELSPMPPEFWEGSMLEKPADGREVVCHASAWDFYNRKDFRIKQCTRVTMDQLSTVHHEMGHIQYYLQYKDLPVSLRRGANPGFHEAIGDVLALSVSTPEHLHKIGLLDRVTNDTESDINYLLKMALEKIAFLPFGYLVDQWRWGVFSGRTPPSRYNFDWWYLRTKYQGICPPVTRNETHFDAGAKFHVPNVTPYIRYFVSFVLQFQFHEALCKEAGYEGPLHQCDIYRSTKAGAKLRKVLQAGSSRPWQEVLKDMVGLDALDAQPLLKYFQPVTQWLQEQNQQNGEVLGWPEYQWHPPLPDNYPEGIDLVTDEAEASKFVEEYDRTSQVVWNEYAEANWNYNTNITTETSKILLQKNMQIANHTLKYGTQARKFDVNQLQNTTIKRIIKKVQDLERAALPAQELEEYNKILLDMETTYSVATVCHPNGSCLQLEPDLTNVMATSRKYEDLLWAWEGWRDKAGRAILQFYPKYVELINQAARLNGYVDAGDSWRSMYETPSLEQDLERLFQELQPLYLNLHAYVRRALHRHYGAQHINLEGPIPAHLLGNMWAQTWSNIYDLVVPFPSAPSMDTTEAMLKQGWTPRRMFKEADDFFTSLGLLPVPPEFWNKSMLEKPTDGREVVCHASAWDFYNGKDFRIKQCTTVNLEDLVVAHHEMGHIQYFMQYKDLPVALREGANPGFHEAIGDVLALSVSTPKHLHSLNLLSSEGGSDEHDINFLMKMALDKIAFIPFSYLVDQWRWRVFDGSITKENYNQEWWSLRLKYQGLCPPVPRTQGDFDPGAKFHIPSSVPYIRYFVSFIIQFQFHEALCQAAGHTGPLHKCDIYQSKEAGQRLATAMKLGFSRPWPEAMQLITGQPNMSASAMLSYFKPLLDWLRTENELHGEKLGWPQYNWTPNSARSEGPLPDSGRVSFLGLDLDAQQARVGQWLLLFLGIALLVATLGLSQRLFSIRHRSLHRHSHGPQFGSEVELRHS

Turning to `NC(N)=NCCC[C@@H](N)C(=O)N[C@@H](CCCN=C(N)N)C(=O)N1CCC[C@H]1C(=O)N1C[C@H](O)C[C@H]1C(=O)NCC(=O)N[C@@H](Cc1cccs1)C(=O)N[C@@H](CO)C(=O)N1Cc2ccccc2C[C@@H]1C(=O)N1[C@H](C(=O)N[C@@H](CCCN=C(N)N)C(=O)O)C[C@@H]2CCCC[C@@H]21` [HOE 140], the “MAP during protamine infusion (nadir)” value in data set [1] (HOE 140 100 μg/kg i.v. before protamine, N=8, mean±SD) was determined as 69.6±3.4 mmHg. Also, the “MAP at the start of the protamine infusion (pre-protamine)” value in data set [1] (HOE 140 100 μg/kg i.v. over one-half hour at end of CPB before protamine, N=8, mean±SD) was found to be 74.3±10.6 mmHg. In addition, in data set [1] (setting [18]), the “heart rate after protamine” value is given as 81.0±14.0 and the “heart rate prior to protamine” value is listed as 91.4±9.5. For the same compound, the “effect on decrease in MAP during protamine infusion” value in data set [1] (P=0.022, ANOVA, versus saline) is reported as “significantly blunted”. The “reduction of mean arterial pressure by protamine” value in data set [1] (in the presence of HOE 140) is given as “about 6%”. In [2], the “CT 4 hours (chest tube output)” value came out at 299.4 ± 233.0 mL, the “CT 24 hours (chest tube output)” value is recorded as 759.6 ± 276.4 mL, the “Fresh frozen plasma transfusion” value was 0.4 ± 1.1 Units and the “New onset atrial fibrillation” value is on record as 1(12.5) N(%). Further, in [2], the PRBC transfusion was determined as 4.4 ± 4.0 Units, the Platelet transfusion was 275 ± 177 mL and the “Time to extubation >10 hours” value is recorded as 2(25) N(%). In data set [3], the “effect on bradykinin-increased expression of tissue factor and PAI-1” value was “suppressed”. In data set [4], the “effect on pancreatitis-induced hypotension” value was “improvement of the hypotension in some animals”; the “effect on release of bradykinin and beta-endorphin” value is on record as “inhibited”. The “effect on decreases in blood pressure” value in [5] was “blocks”. Also, the “effect on blood pressure” value in [6] was “increased blood pressure”. In addition, the “effect on blood pressure” value in [7] is recorded as “restoring blood pressure to normal levels”. Besides, the “effect on vasodilation in response to exogenous bradykinin” value in data set [8] is “prevents vasodilation”. In data set [9] (HOE 140 group N=8), the “t-PA antigen after protamine administration” value worked out at 22.7 ± 9.1 ng/mL and the “t-PA antigen after study drug infusion, before protamine” value turned out to be 20.1 ± 6.1 ng/mL. Also, in data set [9] (HOE 140 group, intraoperative, N=8), the “t-PA antigen before study drug infusion” value amounted to 23.4 ± 12.6 ng/mL. For the same compound, in data set [10], the “PAI-1 antigen after protamine administration” value is 27.4 ± 15.5 ng/mL, the “PAI-1 antigen before protamine administration” value is 20.2 ± 17.1 ng/mL and the “PAI-1 antigen on postoperative day 1” value was determined as 32.4 ± 10.1 ng/mL. The “t-PA activity, intraoperative” value in data set [11] (60 min after initiation of CPB, prior to receiving HOE 140, N=8) was 3.59±0.88 IU/ml. Also, the “t-PA activity, pre-protamine” value in data set [11] (after HOE 140 administration (100 μg/kg i.v.), before protamine, N=8) is on record as 1.67±1.18 IU/ml. The “t-PA activity, post-protamine” value in data set [11] (after protamine infusion in HOE 140 group, N=8) was 0.77±0.74 IU/ml. In addition, the “t-PA activity, baseline” value in data set [11] (before initiation of CPB, prior to HOE 140, N=8) worked out at 0.42±0.29 IU/ml. For the same compound, in [11] (during HOE 140 administration, P=0.036 compared to saline), the “change in t-PA activity” value is on record as −1.92±0.94 IU/ml.
For the compound “Protamine: highly basic polycationic polypeptide given at the end of CPB to reverse the anticoagulation effects of heparin (SEQ ID NO:1) (MARYRCCRSQSRSRYYRQRQRSRRRRRRSCQTRRRAMRCCRPRYRPRCRRH)”, the “inhibition of carboxypeptidase N (kininase I)” value in data set [12] is “inhibits”. Moreover, the “inhibition of angiotensin-converting enzyme (ACE)” value in data set [13] was “does not inhibit”. The “inhibition of neutral endopeptidase 24.11” value in [14] is “does not inhibit”. Besides, in data set [15], the “inhibition of aminopeptidase M” value is on record as “does not inhibit”. Moreover, in data set [16] (after i.v. administration), the “time to neutralization of heparin” value is ≤ 5 min. In addition, the figures for the “heparin activity neutralized per mg of protamine sulfate” value in data set [16] (heparin derived from intestinal mucosa) and in data set [16] (heparin derived from lung tissue) were “about 115 USP units” and “approximately 90 USP units”, respectively. Moreover, the “bradykinin concentration before protamine” value in [17] was found to be 6.3±4.3 finol/ml; in data set [17] (setting [19]) it was 6.3 ± 4.3 fmol/mL. The “bradykinin concentration after protamine” value in data set [17] was 12.2±9.8 finol/ml; in [17] (setting [19]), 12.2 ± 9.8 fmol/mL.

(Values after patent US20070032409A1, “Bradykinin receptor antagonists and uses thereof” (VANDERBILT UNIVERSITY, priority 2005, published 2007).)
